In publication PMC11851430, “Workflow for E3 Ligase Ligand Validation for PROTAC Development” (ACS Chemical Biology, 2025):
Blank lines part the entries; values can stand above or below the compound they belong to.

Columns and labels:
[1] = molecular target: full-length AAK1 (Homo sapiens, UniProt Q2M2I8); assay: cell-based; parameters: species or system HEK293T; NanoBRET tracer displacement in intact cells, NanoLuc fusion protein, Tracer K10; settings: intact cells; read-out: AAK1 intact (IC50±sd)/µM
Chain of full-length AAK1 (Q2M2I8 whole entry, the tested form may be a part): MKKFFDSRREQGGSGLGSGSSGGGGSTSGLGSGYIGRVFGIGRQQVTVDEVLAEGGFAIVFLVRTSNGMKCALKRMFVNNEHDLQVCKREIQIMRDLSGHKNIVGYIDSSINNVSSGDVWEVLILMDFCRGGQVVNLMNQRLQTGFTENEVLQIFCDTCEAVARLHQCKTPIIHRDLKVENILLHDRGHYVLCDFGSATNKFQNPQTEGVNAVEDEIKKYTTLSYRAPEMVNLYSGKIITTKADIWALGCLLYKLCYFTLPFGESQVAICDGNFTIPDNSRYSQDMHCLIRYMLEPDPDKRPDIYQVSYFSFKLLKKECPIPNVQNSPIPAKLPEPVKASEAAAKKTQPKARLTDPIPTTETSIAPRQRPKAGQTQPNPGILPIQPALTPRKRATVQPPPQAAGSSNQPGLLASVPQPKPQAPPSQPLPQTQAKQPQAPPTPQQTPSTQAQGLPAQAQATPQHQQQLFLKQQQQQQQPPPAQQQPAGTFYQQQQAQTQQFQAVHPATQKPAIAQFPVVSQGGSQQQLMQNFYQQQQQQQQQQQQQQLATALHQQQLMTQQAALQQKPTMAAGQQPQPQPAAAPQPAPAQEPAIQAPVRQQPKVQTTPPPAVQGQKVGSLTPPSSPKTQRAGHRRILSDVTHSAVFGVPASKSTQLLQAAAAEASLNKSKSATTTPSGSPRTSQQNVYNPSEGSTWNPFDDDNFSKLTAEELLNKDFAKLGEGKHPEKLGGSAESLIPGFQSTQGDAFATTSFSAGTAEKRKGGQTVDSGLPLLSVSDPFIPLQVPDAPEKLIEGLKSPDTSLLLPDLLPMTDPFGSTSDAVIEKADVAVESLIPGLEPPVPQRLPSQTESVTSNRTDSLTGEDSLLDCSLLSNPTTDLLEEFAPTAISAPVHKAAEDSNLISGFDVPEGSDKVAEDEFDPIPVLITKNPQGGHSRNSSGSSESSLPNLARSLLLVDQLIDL
From the text: Compounds were pipetted at various concentrations using an Echo acoustic dispenser (Labcyte), immediately followed by Tracer K10 (Promega, Tracer DB ID: T000008) for AAK1 and Aurora A and VHL Tracer (Promega, Tracer DB ID: T000019) for VHL, at an optimum KD concentration chosen from TracerDB (tracerdb.org), respectively.

[2] = molecular target: T1, kinase protein levels in MCF-7 cells (Homo sapiens, UniProt Q9BTL3); assay: TMT-labeled quantitative proteomics; assay type: cell-based; settings: protein FAM103A1; MCF7; 1 µM; set5
T1 construct: endogenous in cells; host or cells: MCF-7
T1 sequence (Q9BTL3 whole entry): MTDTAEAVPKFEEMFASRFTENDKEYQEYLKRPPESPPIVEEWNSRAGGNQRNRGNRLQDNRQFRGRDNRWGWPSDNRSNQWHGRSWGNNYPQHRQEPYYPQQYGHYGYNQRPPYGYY

[3] = tested on: kinase expression levels in Jurkat cells; assay: Label-free quantitative proteomics of kinase parent inhibitors; assay type: cell-based, human; settings: 6 h
Method: CO2. After incubation, the BRET signals were measured by a PHERAstar plate reader (BMG Labtech) following the same procedure as intact NanoBRET® measurement. Competitive displacement data were then normalized to controls and were plotted using GraphPad Prism 9 software employing a normalized 3-parameter curve fit with the following equation: […]
The effects of the compounds on cell viability was determined using the CellTiter-Glo® 2.0 Cell Viability Assay (Promega: G9241) following manufacturer’s protocol. Ten µL of Jurkat cells at […]
After equilibration, PROTACs were titrated at various concentrations using an Echo acoustic […]
volume of CellTiter-Glo® 2.0 reagent (10 µL) was added to each well and cells were incubated for 10 minutes at room temperature. Filtered luminescence was measured on a PHERAstar plate reader (BMG Labtech) and data was evaluated using GraphPad Prism 9 software employing a normalized curve it with the following equation: Y=Bottom + (Top-Bottom)/(1+10(LogEC50-X) *HillSlope).
Sample preparation. Jurkat cells (ATCC © HTB-22) were cultured in RPMI (Thermo:
Cells were seeded in 6 well plates (Greiner:
50 µl of SDS Lysis Buffer (2% SDS, 50 mM TRIS pH 8.5, 10 mM TCEP, 40 mM CAA) was added to each sample. Cells were transferred into low binding reaction tubes (Eppendorf: […]
Protein yield was determined by […]

IC50 [1]: 0.108 ± 0.042 µM
SMILES: Cc1ncsc1-c1ccc(CNC(=O)[C@@H]2C[C@H](O)CN2C(=O)[C@@H](NC(=O)CCOCCOCCOCCN2CCN(c3cc(Nc4cc(C5CC5)[nH]n4)nc(Nc4ccc(CC#N)cc4)n3)CC2)C(C)(C)C)cc1 [4-a^neg]

P.Value (compound/DMSO) [2]: 0.1981
log2FC (compound/DMSO) [2]: -0.2114
SMILES: Cc1ncsc1-c1ccc(CNC(=O)[C@@H]2C[C@@H](O)CN2C(=O)[C@@H](NC(=O)CCCCCCN2CCN(c3ccc(Nc4ncc(Cl)c(Nc5ccccc5C(N)=O)n4)cc3)CC2)C(C)(C)C)cc1 [6-d]

SMILES: CCOC(=O)c1cc(Nc2cc(C3CC3)[nH]n2)nc(Nc2ccc(CC#N)cc2)n1 [compound 5]
kinases with reduced protein levels ([3]; 0.25 μM): reduced protein levels of PLK1 and BUB1
kinases with reduced protein levels ([3]; 2.5 μM): no additional kinases showed lower protein levels
